Consider four molecules from ChEMBL document CHEMBL1133424, “Fluoresceinated FKBP12 ligands for a high-throughput fluorescence polarization assay” (Bioorg Med Chem Lett, 2000).

The target in assay [1] is T1, Peptidyl-prolyl cis-trans isomerase FKBP1A (Homo sapiens, UniProt P62942). Description: Binding affinity of compound for FK506 binding protein 12.
In assay [2] the target is T1, Peptidyl-prolyl cis-trans isomerase FKBP1A. Description: Concentration required to produce a half-maximal FP signal at against FK506 binding protein 12 at ligand concentration of 100 nM.

As usually defined, the Ki is the dissociation constant of the complex between target and ligand, obtained from inhibition or displacement. Read a high Ki as weaker binding. What is called IC50 is the concentration needed to halve the response being measured.

T1 sequence (P62942 whole entry): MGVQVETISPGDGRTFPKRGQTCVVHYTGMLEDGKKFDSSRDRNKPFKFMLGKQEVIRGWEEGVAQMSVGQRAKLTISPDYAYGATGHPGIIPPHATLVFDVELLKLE

As to `CC(C)(C)CC(=O)C(=O)N1CCCC[C@H]1C(=O)OCCC/N=C(S)/N=C1\C=CC(=C2c3ccc(O)cc3Oc3cc(O)ccc32)C(C(=O)O)=C1`, in assay [1], the affinity, expressed as Ki, was 482 nM. Further, in assay [2], the IC50 came to 980 nM.
For `COc1cc(C(=O)C(=O)N2CCCC[C@H]2C(=O)OCCCC/N=C(S)/N=C2\C=CC(=C3c4ccc(O)cc4Oc4cc(O)ccc43)C(C(=O)O)=C2)cc(OC)c1OC` the same measures were 526 nM and 410 nM.
For `CC(C)(C)CC(=O)C(=O)N1CCCC[C@H]1C(=O)OC(CCCc1ccccc1)CC/N=C(S)/N=C1\C=CC(=C2c3ccc(O)cc3Oc3cc(O)ccc32)C(C(=O)O)=C1` (stereo partly drawn) the same measures were 32 nM and 250 nM.
For `CCC(C)(C)C(=O)C(=O)N1CCC[C@H]1C(=O)OCCC/N=C(S)/N=C1\C=CC(=C2c3ccc(O)cc3Oc3cc(O)ccc32)C(C(=O)O)=C1` the same measures were 1300 nM and 1650 nM.
